Measured values taken from PubChem BioAssay AID720570 (Broad Institute, 2013).
Calls of active or inactive are those of the source.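 Rule for the calls: active = cell-killing curve crosses a set limit at a concentration no more than twice the top valid dose; inconclusive = flat curve with a 30 to 70% loss, or a poor fit; inactive = signal rising instead of falling, and the rest.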

Assay: TC71 Ewing sarcoma cell killing, confirmation, luminescence, cherry-picked samples, retest (AID 720570)
Details: TC71 Ewing sarcoma viability, CellTiter-Glo ATP, 72 h

SMILES	activity change, negative = cytotoxicity (at 26 µM (top of the series))	activity change, negative = cytotoxicity (at 23.5 µM (top of the series))
C/C(=N\Nc1cccc2cccnc12)c1ccccn1	3.52% (inactive)	–
CCCNC(=O)[C@@H]1[C@@H](CO)[C@@H]2Cn3c(ccc(-c4ccccc4)c3=O)[C@H]1N2C(=O)CC	0.956% (inactive)	–
CC(C)c1ccc(OCc2cccc(C(=O)N/N=C/c3cccnc3)c2)cc1	0.747% (inactive)	–
CC(C)(C)c1ccc(Oc2ccc(NC(=O)C3CC=CCC3C(=O)O)cc2)cc1 (stereo unspecified)	-20.1% (inactive)	–
CCOc1ccc(/C=C2\CCc3ccccc3C2=O)cc1	4.42% (inactive)	–
Cc1sc2nc(CN3CCC(C)CC3)nc(Cl)c2c1C	16.2% (inactive)	–
Nc1ccc(Oc2cccc(Oc3ccc(N)cc3)c2)cc1	-7.72% (inactive)	–
COC(=O)C[C@@H]1CC[C@@H]2[C@H](COc3ccc(NC(=O)c4cccc(F)c4)cc3C(=O)N2C)O1	–	2.03% (inactive)
O=C1c2ccc3c4c(ccc(c24)C(=O)N1c1cccc(O)c1)C(=O)N(c1cccc(O)c1)C3=O	-1.18% (inactive)	–
O=C(NCCc1ccccc1)c1ccccc1NC(=O)C1CCCO1 (stereo unspecified)	-0.496% (inactive)	–
Cc1c(N=Cc2cc(Br)cc(Br)c2O)cccc1C(=O)O	25.2% (inactive)	–
CC(=O)c1ccc(NC(=O)c2noc3c2CCC3)cc1	-19.5% (inactive)	–
CC1(CCc2ccccc2)NC(=O)N(CC(=O)N2CC(=O)Nc3ccccc32)C1=O (stereo unspecified)	3.37% (inactive)	–
COC(=O)C[C@@H]1CC[C@@H]2[C@H](COc3ccc(NC(=O)c4cccc(Cl)c4)cc3C(=O)N2C)O1	–	2.41% (inactive)
O=C(CCCCl)Nc1nc(-c2ccc3c(c2)OCCO3)cs1	3.63% (inactive)	–
O=C(COC(=O)c1ccc[nH]c1=O)Nc1ccc(N2CCCCC2)cc1	6.54% (inactive)	–
Cc1ccc(N=C2NC(=O)/C(=C\c3cccs3)S2)cc1C	-0.931% (inactive)	–
Cc1noc(C)c1NC(=O)Nc1ccc2c(c1)CC(=O)N([C@H](C)CO)C[C@@H](C)[C@@H](CN(C)Cc1ccc(Cl)c(Cl)c1)O2	0.509% (inactive)	–
COC(=O)[C@H]1[C@H](CO)[C@H]2Cn3c(ccc(-c4ccccc4F)c3=O)[C@@H]1N2CC1CCCC1	4.06% (inactive)	–
Nc1ccc2c(c1)OC1(CCCC1)O2	25.1% (inactive)	–
Cc1nc2cc(-c3ccc(Cl)cc3)nn2c(C)c1CCC(=O)NC(C)c1ccc2c(c1)OCCO2 (stereo unspecified)	14.2% (inactive)	–

SMILES	activity change, negative = cytotoxicity (at 26 µM (top of the series))	activity change, negative = cytotoxicity (at 23.5 µM (top of the series))
CCc1c(C(=O)NN2C(=O)C3CCCCC3C2=O)csc1C (stereo unspecified)	23.1% (inactive)	–
CN(C)c1ccc(N=Nc2ccc(C(=O)O)cc2)cc1	9.97% (inactive)	–
COC(=O)C[C@@H]1CC[C@@H]2[C@@H](COc3ccc(NC(=O)Cc4cccs4)cc3C(=O)N2C)O1	14.1% (inactive)	–
COC(=O)C[C@@H]1CC[C@@H]2[C@H](COc3ccc(NC(=O)c4cc(F)cc(F)c4)cc3C(=O)N2C)O1	-5.96% (inactive)	–
COc1ccccc1N(/N=C1\Sc2ccccc2C1=O)C(C)=O	-15.8% (inactive)	–
C(=C\c1ccc(C2[C@H]3CNC[C@@H]2N3Cc2ccccn2)cc1)/c1ccccc1 (stereo partly specified)	-7.86% (inactive)	–
CC(=O)Nc1ccc(S(=O)(=O)Nc2ccc(N3CCCCC3)cc2)cc1	-4.73% (inactive)	–
COC(=O)C[C@@H]1CC[C@@H]2[C@@H](COc3ccc(NC(=O)Nc4ccc(C#N)cc4)cc3C(=O)N2C)O1	15% (inactive)	–
CCCCCCN(C(=O)CCCCCN1C(=O)NC(c2ccc(Cl)cc2)C(C(=O)OCc2ccccc2)=C1C)C(C(=O)NCCCC)c1ccc(OCC(=O)OC)c(C(=O)OC)c1 (stereo unspecified)	8.62% (inactive)	–
COC(=O)C[C@@H]1CC[C@@H]2[C@@H](COc3ccc(NC(=O)Nc4cccc(Cl)c4)cc3C(=O)N2C)O1	–	-4.34% (inactive)
CC(=O)c1ccc(N=C2C(=O)Nc3ccccc32)cc1	-7.15% (inactive)	–
C/C=C/c1ccc([C@H]2[C@@H](CO)N3C(=O)CN(S(=O)(=O)c4cccc(F)c4)C[C@@H]23)cc1	13.2% (inactive)	–
CCCn1nnc(NC(=S)NC(=O)C(C)(C)C)n1	17.3% (inactive)	–
O=C(O)c1ccc2cc(-c3ccccc3)[nH]c2c1	10.6% (inactive)	–
C[C@@H]1CCCCO[C@H](CN(C)Cc2ccc(C(F)(F)F)cc2)[C@H](C)CN([C@H](C)CO)C(=O)c2cc(NC(=O)CCCN(C)C)ccc2O1	-2.5% (inactive)	–
CCOc1ccc(C(c2c(NC(=O)c3ccccc3)sc(C)c2C)N2CCN(CCO)CC2)cc1 (stereo unspecified)	16.1% (inactive)	–
CCCCN=C(NNc1ccc(Br)cc1)C(=O)OCC	4.46% (inactive)	–
Cc1ccc2oc(/N=C(\N)NC(=O)C(C)(C)C)nc2c1	2.46% (inactive)	–
C[C@H]1CN([C@@H](C)CO)S(=O)(=O)c2ccc(C#Cc3ccncc3)cc2O[C@@H]1CN(C)S(=O)(=O)c1ccccc1	-7.09% (inactive)	–
COc1ccc(S(=O)(=O)N=Nc2c(O)[nH]c3ccccc23)cc1	5.63% (inactive)	–
